For data set [1], the system named is catchweed bedstraw (GALAP). Nature of the data set: greenhouse herbicidal action, post-emergence treatment. Format: in vivo. The note with it: application rates of 15.6 and 31.3 g of a.s./ha. The source says:
(§1) The seeds of the test plants were sewn separately for each species. For the post-emergence treatment, the test plants were first grown to a height of from 3 to 15 cm, depending on the plant habit, and only then treated with the active compounds which had been suspended or emulsified in water. The test plants were for this purpose either sown directly and grown in the same containers, or they were first grown separately as seedlings and transplanted into the test containers a few days prior to treatment. The application rate for the post-emergence treatment was 31.3 and 15.6 g of a.s./ha. Depending on the species, the plants were kept at 10-25° C. or 20-35° C. The test period extended over 2 to 4 weeks. During this time, the plants were tended, and their response to the individual treatments was evaluated. The evaluation was carried out using a scale from 0 to 100. 100 means no emergence of the plants, or complete destruction of at least the above-ground parts, and 0 means no damage, or normal course of growth. The plants used in the greenhouse experiments were of the following species: [table]

The test system of the next data set is dayflower (COMBE). Described as above. The note with it: application rates of 15.6 and 31.3 g of a.s./ha. Format: in vivo.
Text: as §1

For another data set, the system named is morning glory (IPOSS). Described as above. Format: in vivo. The following applies: application rates of 15.6 and 31.3 g of a.s./ha.
Text: as §1

In a further data set the test system is redroot pigweed (AMARE). The description is as above. Format: in vivo. The note with it: application rates of 15.6 and 31.3 g of a.s./ha.
Text: as §1

For a further data set, the system named is velvet leaf (ABUTH). Described as above. Format: in vivo. The following applies: application rates of 15.6 and 31.3 g of a.s./ha.
Text: as §1

One may read the melting point as the temperature, or range, at which the solid turns liquid.

Take `FC(F)(F)c1snc(-c2c(Cl)cc(Cl)c3nc(C4CC4)oc23)c1Cl` [IDa.67, 4,6-Dichloro-7-(4-chloro-5-trifluoromethyl-3-isothiazolyl)-2-cyclopropyl-1,3-benzoxazole]: the melting point lay within 110 to 111 °C.

Consider `COC(=O)C(C)Oc1cc(-c2nsc(C(F)(F)F)c2Cl)c(F)cc1Cl` (stereo not shown) [IAa.727, Methyl 2-[2-chloro-4-fluoro-5-(4-chloro-5-trifluoromethylisothiazol-3-yl)phenoxy]propionate], for which the herbicidal action result (in data set [1]; in the data set on dayflower (COMBE); in the data set with morning glory (IPOSS); in the data set on redroot pigweed (AMARE); in the data set with velvet leaf (ABUTH)) was “very good herbicidal action” each time.

The compound `CS(=O)(=O)Nc1cc(-c2nsc(C(F)(F)F)c2Cl)c(Cl)cc1Cl` [IAa.361, N-{2,4-Dichloro-5-[4-chloro-5-(trifluoromethyl)-3-isothiazolyl]-phenyl}methanesulfonamide] gave a melting point of 161 to 164 °C.

The record behind these values is patent US20040023807A1, “3-Arylisothiazoles and their use as herbicides” (priority 2000, published 2004).
